# From patent publication US20030228632A1, “Stable RXR expressing cell line” (Allergan Sales, Inc., priority 2000, published 2003)
# Experiments:
# Type in all cases: cell-based, Rat
# HircRXRα cells [1] = experiment: Cell growth of HircRXRα cells, direct microscopic observation; settings: 1 nM
# Description: (§1) The effect on cell growth was evaluated by plating either a HircB cells (as a control) or HircRXRα cells in 6 well plates with 0.5×10^5 cells per well in 10% FBS/DMEM/F12. The next day, the medium was replaced with a specified concentration of agonist, antagonist or both or with 0.1% DMSO in 10% FBS/DMEM/F12. Analyses were performed in triplicate.
# […] Alternatively, cell growth was measured using the MTT assay using absorbance at 590 nm. Mosmann, T., et al., J Immunol. Meth. (1983) 65:55-62.
# HircRXRα cells [2] = experiment: Cell counts of HircRXRα cells after agonist treatment (FIG. 5); settings: 1 nM, four days of treatment
# Description: as §1
# HircB cells = experiment: Cell counts of parental HircB cells after agonist treatment (FIG. 5); settings: 1 nM, four days of treatment
# Description: as §1
# HircRXRα cells [3] = experiment: HircRXRα cell growth by MTT assay (FIGS. 6 and 7); settings: five days of treatment, FIG. 6
# Description: as §1
# After incubation with agonist for 2 days, the change in cell number and morphology in the various HircRXRα cell samples were observed under the microscope. Alternatively, cell growth was measured using the MTT assay using absorbance at 590 nm. Mosmann, T., et al., J Immunol. Meth. (1983) 65:55-62.
# FIGS. 6 and 7 show effects of RXRα ligands on HircRXRα cell growth as determined when cell growth was assessed by the MTT assay.
# [4] = tested on: phosphorylated MEK in HircB cells; experiment: Insulin stimulated phosphorylation of MEK in HircB cells (Western blot, FIG. 8); settings: 100 nM insulin, 0-30 minutes
# Description: (§2) They were then incubated for various periods in the presence of 100 nM insulin and then lysed. Solubilized cell proteins were subjected to SDS-PAGE and transferred to nitrocellulose and immunoblotted using antibodies specific to phosphorylated forms of MEK and MAP kinase.
# (§3) FIGS. 8 and 9 show the results. […] In the left panel, the parental HircB cell line was tested for phosphorylated MEK in the solubilized protein at 0 minutes (lane 1), 5 minutes (lane 2), 15 minutes (lane 3) and 30 minutes (lane 4) after treatment with 100 nM insulin.
# [5] = tested on: phosphorylated MEK in HircRXRα cells; experiment: Insulin stimulated phosphorylation of MEK in HircRXRα cells (Western blot, FIG. 8); settings: 100 nM insulin, 0-30 minutes
# Description: as §2, §3
# [6] = tested on: phosphorylated MAP-kinase in HircB cells; experiment: Insulin stimulated phosphorylation of MAP kinase in HircB cells (Western blot, FIG. 9); settings: 100 nM insulin, up to 90 minutes
# Description: as §2
# (§4) Similar results are shown in FIG. 9 with respect to the phosphorylation of MAP-kinase in response to insulin.
# [7] = tested on: phosphorylated MAP-kinase in HircRXRα cells; experiment: Insulin stimulated phosphorylation of MAP kinase in HircRXRα cells (Western blot, FIG. 9); settings: 100 nM insulin, up to 90 minutes
# Description: as §2, §4
Molecule,effect on cell growth (microscopic observation) (HircRXRα cells [1]; after four days),effect on cell growth (microscopic observation) (HircRXRα cells [1]; after two days),growth (cell counts) relative to no agonist (HircRXRα cells [2]),effect on growth (cell counts) (HircB cells),effect on cell growth (MTT assay) (HircRXRα cells [3]; 1 nM),effect on cell growth (MTT assay) (HircRXRα cells [3]; 100 nM),phosphorylated MEK after insulin treatment [4],phosphorylated MEK after insulin treatment [5],phosphorylated MAP-kinase after insulin treatment [6],phosphorylated MAP-kinase after insulin treatment [7]
CC(/C=C/[C@@H]1C[C@]1(C)c1ccc2c(c1)C(C)(C)CCC2(C)C)=C\C(=O)O [AGN 4204],the reduction in growth was maintained,greatly reduced growth,approximately one-third,no demonstrable effect,significant reduction in growth,further reduction in growth,–,–,–,–
insulin: insulin used at 100 nM to stimulate MEK and MAP kinase phosphorylation,–,–,–,–,–,–,diminished considerably by 30 minutes,less reduced after 30 minutes than in the HircB cell line,virtually gone after 90 minutes,substantially maintained over the 90-minute period
